Experimental data from ChEMBL document CHEMBL1138038, “Sequence-based design and discovery of peptide inhibitors of HIV-1 integrase: insight into the binding mode of the enzyme” (J Med Chem, 2006).
Residues, ends and D or L forms follow the SMILES beside them.

What was measured:
[1] = target: T1, Human immunodeficiency virus type 1 integrase (Human immunodeficiency virus 1, UniProt Q7ZJM1); assay: Inhibition of wild type HIV1 integrase strand transfer activity
[2] = target: T1, Human immunodeficiency virus type 1 integrase; assay: Inhibition of wild type HIV1 integrase 3' processing activity

T1 sequence (Q7ZJM1 whole entry): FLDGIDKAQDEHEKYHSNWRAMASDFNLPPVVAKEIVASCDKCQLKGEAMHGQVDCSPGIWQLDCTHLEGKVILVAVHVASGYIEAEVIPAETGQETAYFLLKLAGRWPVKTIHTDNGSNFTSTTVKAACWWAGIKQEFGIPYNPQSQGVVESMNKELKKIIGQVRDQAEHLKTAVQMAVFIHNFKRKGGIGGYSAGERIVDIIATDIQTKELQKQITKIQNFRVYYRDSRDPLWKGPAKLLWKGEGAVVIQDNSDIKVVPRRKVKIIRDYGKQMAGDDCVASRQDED

IC50 [1] [µM]	IC50 [2] [µM]	Compound
> 1000	> 1000	H-WKGPAKLLWK-NH2
56	95	H-ACWWAGIKQEF-NH2
38	315	H-TAYFLLKLAGRL-NH2
> 2000	> 2000	H-HTDNGSNF-NH2
> 333	> 333	H-ACWWAGIKAEF-OH
34	33	H-ACAWAGIKQEF-OH
> 1000	> 1000	H-FGIPYNPQSQ-NH2
106	> 333	H-TAYFLLKAAGRW-OH
> 100	> 100	H-WAGIKQ-NH2
19	118	CC(C)C[C@H](NC(=O)[C@H](CCCCN)NC(=O)[C@H](CC(C)C)NC(=O)[C@H](CC(C)C)NC(=O)[C@H](Cc1ccccc1)NC(=O)[C@H](Cc1ccc(O)cc1)NC(=O)[C@H](C)NC(=O)[C@@H](N)[C@@H](C)O)C(=O)N[C@@H](C)C(=O)N[C@@H](C)C(=O)N[C@@H](CCCN=C(N)N)C(=O)N[C@@H](Cc1c[nH]c2ccccc12)C(=O)O
> 100	> 100	H-KLAGRW-NH2
> 333	> 333	H-TAYALLKLAGRW-OH
43	90	H-ACWWAAIKQEF-OH
> 2000	> 2000	H-PAETGQET-NH2
> 2000	> 2000	H-VHVASGY-NH2
80	83	H-TAYFLLKLAGAW-OH
> 333	> 333	H-ACWWAGAKQEF-OH
> 333	> 333	H-TAYFLAKLAGRW-OH
> 2000	> 2000	H-ESMNKELKKI-NH2
47	100	H-AAYFLLKLAGRW-OH
> 333	> 333	H-ACWGAGIKQEF-NH2
500	500	H-TAYFLL-NH2
3	4.1	H-TAYFLLILAGRW-NH2
> 100	> 100	H-IKQEF-NH2
> 333	> 333	H-TAYFLLKLAGRA-OH
> 1000	> 1000	CC[C@H](C)[C@H](NC(=O)[C@H](CCCCN)NC(=O)[C@H](CCC(N)=O)NC(=O)[C@H](CCC(=O)O)NC(=O)[C@@H](N)Cc1ccccc1)C(=O)NCC(=O)N[C@@H](C)C(=O)N[C@@H](Cc1c[nH]c2ccccc12)C(=O)N[C@@H](Cc1c[nH]c2ccccc12)C(=O)N[C@@H](CS)C(=O)N[C@@H](C)C(=O)O

IC50 [1] [µM]	IC50 [2] [µM]	Compound
4	3.5	CC(C)C[C@@H](NC(=O)[C@@H](C)NC(=O)CNC(=O)[C@@H](CCCN=C(N)N)NC(=O)[C@H](N)Cc1c[nH]c2ccccc12)C(=O)N[C@H](CCCCN)C(=O)N[C@H](CC(C)C)C(=O)N[C@H](CC(C)C)C(=O)N[C@H](Cc1ccccc1)C(=O)N[C@H](Cc1ccc(O)cc1)C(=O)N[C@H](C)C(=O)N[C@@H](C(=O)O)[C@H](C)O
119	193	H-TAAFLLKLAGRW-OH
> 1000	> 1000	CC[C@@H](C)[C@@H](NC(=O)[C@@H](CCCCN)NC(=O)[C@@H](CCC(N)=O)NC(=O)[C@@H](CCC(=O)O)NC(=O)[C@H](N)Cc1ccccc1)C(=O)NCC(=O)N[C@H](C)C(=O)N[C@H](Cc1c[nH]c2ccccc12)C(=O)N[C@H](Cc1c[nH]c2ccccc12)C(=O)N[C@@H](CS)C(=O)N[C@H](C)C(=O)O
163	294	H-ASWWAGIKQEF-NH2
16	46	H-ACGWAGIKQEF-NH2
> 1000	> 1000	CC[C@@H](C)[C@@H](NC(=O)CNC(=O)[C@@H](C)NC(=O)[C@@H](Cc1c[nH]c2ccccc12)NC(=O)[C@@H](Cc1c[nH]c2ccccc12)NC(=O)[C@@H](CS)NC(=O)[C@@H](C)N)C(=O)N[C@H](CCCCN)C(=O)N[C@H](CCC(N)=O)C(=O)N[C@H](CCC(=O)O)C(=O)N[C@H](Cc1ccccc1)C(=O)O
> 2000	> 2000	CC(C)C[C@H](NC(=O)[C@H](CCC(N)=O)NC(=O)[C@H](CS)NC(=O)[C@H](CCCCN)NC(=O)[C@H](CC(=O)O)NC(=O)[C@H](CS)NC(=O)[C@H](CO)NC(=O)[C@H](C)N)C(=O)N[C@@H](CCCCN)C(=O)NCC(N)=O (H-ASCDKCQLKG-NH2)
60	> 100	H-ACWWAG-NH2
> 2000	> 2000	H-GRWPVKT-NH2
> 2000	> 2000	H-FIHNFKRK-NH2
> 2000	> 2000	H-VRDQAEHLKT-NH2
> 333	> 333	H-ACWWAGIRQEF-NH2
55	62	H-ACWWAGIAQEF-OH
56	113	H-TAYFLLALAGRW-OH
1000	1000	CC[C@H](C)[C@H](NC(=O)CNC(=O)[C@@H]1CCCN1C(=O)[C@H](CO)NC(=O)[C@H](CS)NC(=O)[C@H](CC(=O)O)NC(=O)[C@@H](NC(=O)[C@H](CCC(N)=O)NC(=O)CNC(=O)[C@@H](N)Cc1cnc[nH]1)C(C)C)C(=O)N[C@@H](Cc1c[nH]c2ccccc12)C(=O)N[C@@H](CCC(N)=O)C(=O)N[C@@H](CC(C)C)C(=O)N[C@@H](CC(=O)O)C(=O)N[C@@H](CS)C(=O)N[C@H](C(=O)N[C@@H](Cc1cnc[nH]1)C(N)=O)[C@@H](C)O (H-HGQVDCSPGIWQLDCTH-NH2)
> 2000	> 2000	H-GYSAGERIVD-NH2
> 333	> 333	H-ACWWAGIKQAF-OH
311	277	H-AAWWAGIKQEF-OH
51	115	H-TAYFALKLAGRW-OH
> 1000	> 1000	H-VPRRKAKI-NH2
> 333	> 333	H-ACWAAGIKQEF-OH
> 2000	> 2000	H-EEHEKYHSNW-NH2
11	186	H-TASFLLKLAGRW-NH2
206	245	H-ACWWAGIKQEA-OH
16	96	CC(C)C[C@@H](NC(=O)[C@@H](CCCCN)NC(=O)[C@@H](CC(C)C)NC(=O)[C@@H](CC(C)C)NC(=O)[C@@H](Cc1ccccc1)NC(=O)[C@@H](Cc1ccc(O)cc1)NC(=O)[C@@H](C)NC(=O)[C@H](N)[C@H](C)O)C(=O)N[C@H](C)C(=O)NCC(=O)N[C@H](CCCN=C(N)N)C(=O)N[C@H](Cc1c[nH]c2ccccc12)C(=O)O

Compound	IC50 [1] [µM]	IC50 [2] [µM]
H-YFLLKL-NH2	20	20
CC(C)C[C@H](NC(=O)[C@H](CCCCN)NC(=O)[C@H](CC(C)C)NC(=O)[C@H](CC(C)C)NC(=O)[C@H](Cc1ccccc1)NC(=O)[C@H](Cc1ccc(O)cc1)NC(=O)[C@H](C)NC(=O)[C@@H](N)[C@@H](C)O)C(=O)N[C@@H](C)C(=O)NCC(=O)N[C@@H](CCCN=C(N)N)C(=O)N[C@@H](Cc1c[nH]c2ccccc12)C(N)=O	2.7	21
CC(C)C[C@@H](NC(=O)[C@@H](CCCCN)NC(=O)[C@@H](CC(C)C)NC(=O)[C@@H](CC(C)C)NC(=O)[C@@H](Cc1ccccc1)NC(=O)[C@@H](Cc1ccc(O)cc1)NC(=O)[C@@H](C)NC(=O)[C@H](N)[C@H](C)O)C(=O)N[C@H](C)C(=O)NCC(=O)N[C@H](CCCN=C(N)N)C(=O)N[C@H](Cc1c[nH]c2ccccc12)C(N)=O	13	65
